Reference: patent publication US20250304537A1 (Repare Therapeutics Inc., priority 2022, published 2025)

Tested on: PKMYT1 (CDK1 pThr14) in FUOV1 cells
Test: PKMYT1 cell-based activity assay, CDK1 pThr14 AlphaLISA in FUOV1 cells
Conditions: 2 h, 2 h compound incubation, read-out: FUOV-1 CDK1 pThr14 IC50
Procedure: To determine compound IC50 (PKMYT1 cell-based activity assay, CDK1 pThr14 AlphaLISA), FUOV1 cells were plated into a 96-well TC-treated culture plate at 50000 cells/well in a final volume of 100 μL of media. The plates were then allowed to equilibrate in a biological safety cabinet for 30 minutes before being placed in a humidified incubator at 37 C and 5% CO2 overnight. The next day, 2 μL of PKMYT1 inhibitors or DMSO were diluted in 400 μL of warmed culture media in a 96-well block using a Biomek FX liquid handler. Compounds were mixed in media and then 25 μL was dispensed into each well of the 96-well cell plate. Plates were centrifuged at 300 g for 10 seconds and then placed in the incubator for 2 hours. After the 2-hour incubation with compound, media was removed via aspiration using a multichannel pipette. 30 μL of 1× AlphaLISA lysis buffer (Perkin Elmer) supplemented with protease and phosphatase inhibitors as well as 1 mM PMSF, was added to each well. Plates were rotated at 500 g for 20 minutes to facilitate lysis. Plates were then sealed with aluminum foil and frozen at −80° C. for at least 1 hour. Lysates were thawed at 37° C. for 10 minutes, then 10 μL of each lysate was transferred in duplicate to a white 384-well assay plate. Antibody mixture was prepared in 1× AlphaLISA assay buffer (Perkin Elmer) containing antibodies (5 nM final concentration for rabbit pThr14-CDK1 from Abcam #ab58509 and mouse total CDK1 from ThermoFisher Scientific #33-1800). 5 μL of antibody mixture was added to each well of the assay plate. The assay plate was sealed and stored at 4° C. overnight. The next day, AlphaLISA bead mixture (Perkin Elmer) was prepared in 1× AlphaLISA assay buffer. Anti-rabbit IgG Acceptor (Perkin Elmer #AL104C) and anti-mouse IgG Donor beads (Perkin Elmer #AS104D) were prepared to a concentration of 80 μg/ml in assay buffer. 5 μL of bead mixture was added to each well of the assay plate (20 μg/ml final concentration for each bead). The plate was protected from light and incubated for 2 hours at room temperature. After a 2-hour incubation with beads, the plate was read using the Perkin Elmer EnVision Multimode plate reader with excitation at 680 nm and emission at 615 nm.

IC50	SMILES
14 nM	Cc1ccc2[nH]ncc2c1-c1nc(-c2cc(F)cnc2N[C@H]2CCOC2)nc(C(N)=O)c1N [Compound 711]
9 nM	Cc1ccc2[nH]ncc2c1-c1nc(-c2cccnc2N[C@@H]2CC[C@@H](O)C2)nc(C(N)=O)c1N [Compound 786]
680 nM	Cc1ccc2[nH]ncc2c1-c1nc(-c2cccnc2NCCN2CCOCC2)nc(C(N)=O)c1N [Compound 703]
256 nM	COCCCNc1ncccc1-c1nc(C(N)=O)c(N)c(-c2c(C)ccc3[nH]ncc23)n1 [Compound 537]
164 nM	Cc1cccnc1Nc1cc(F)ccc1-c1nc(C(N)=O)c(N)c(-c2c(C)ccc3[nH]ncc23)n1 [Compound 671]
8 nM	Cc1cnc(Cl)c(Nc2ncccc2-c2nc(C(N)=O)c(N)c(-c3c(C)ccc4[nH]ncc34)n2)n1 [Compound 744]
24 nM	Cc1ccc2[nH]ncc2c1-c1nc(-c2cccnc2Nc2ccncc2)nc(C(N)=O)c1N [Compound 562]
22 nM	Cc1ccc2[nH]ncc2c1-c1nc(-c2cccnc2NC2(C)CCOC2)nc(C(N)=O)c1N (centres unmarked) [Compound 591]
33 nM	Cc1ccc2[nH]ncc2c1-c1nc(-c2ncccc2NCC(F)(F)F)nc(C(N)=O)c1N [Compound 538]
150 nM	Cc1ccc2[nH]ncc2c1-c1nc(-c2cccnc2Nc2cccc(C#N)c2)nc(C(N)=O)c1N [Compound 630]
151 nM	CO[C@H]1C[C@H](Nc2ncccc2-c2nc(C(N)=O)c(N)c(-c3c(C)ccc4[nH]ncc34)n2)C1 [Compound 551]
527 nM	COc1cccc(Nc2ncccc2-c2nc(C(N)=O)c(N)c(-c3c(C)ccc4[nH]ncc34)n2)c1 [Compound 656]

Second part, the compound before the results:

SMILES	IC50
Cc1ccc2[nH]ncc2c1-c1nc(-c2cc(C#N)ccc2Nc2ncccn2)nc(C(N)=O)c1N [Compound 789]	43 nM
Cc1ccc2[nH]ncc2c1-c1cc2c(oc3ccc(OCC(C)(C)C#N)nc32)c(C(N)=O)c1N [Compound 559]	1290 nM
Cc1ccc2[nH]ncc2c1-c1nc(-c2ccc(F)cc2Nc2nccs2)nc(C(N)=O)c1N [Compound 581]	40 nM
COCCOc1ccc2oc3c(C(N)=O)c(N)c(-c4c(C)ccc5[nH]ncc45)cc3c2n1 [Compound 556]	132 nM
Cc1ccc2[nH]ncc2c1-c1nc(-c2ccc(F)cc2Nc2ncnc(C)c2C#N)nc(C(N)=O)c1N [Compound 639]	121 nM
Cc1ccc2[nH]ncc2c1-c1nc(-c2ccc(F)cc2Nc2cncc(C#N)n2)nc(C(N)=O)c1N [Compound 706]	56 nM
Cc1ccc2[nH]ncc2c1-c1cc2c(oc3ccc(NC4CCOCC4)nc32)c(C(N)=O)c1N [Compound 575]	24 nM
Cc1ccc2[nH]ncc2c1-c1nc(-c2cc(F)c(F)cc2NC2COC2)nc(C(N)=O)c1N [Compound 497]	52 nM
Cc1ccc2[nH]ncc2c1-c1nc(-c2cc(F)cnc2NCC(C)(C)O)nc(C(N)=O)c1N [Compound 683]	65 nM
Cc1ccc2[nH]ncc2c1-c1nc(-c2cc(Cl)ccc2Nc2ncccn2)nc(C(N)=O)c1N [Compound 637]	241 nM
Cc1ccc2[nH]ncc2c1-c1nc(-c2cc(F)ccc2NS(C)(=O)=O)nc(C(N)=O)c1N [Compound 491]	45 nM
Cc1ccc2[nH]ncc2c1-c1nc(-c2cc(F)cnc2N[C@H]2CC[C@](C)(O)CC2)nc(C(N)=O)c1N [Compound 722]	232 nM
Cc1ccc2[nH]ncc2c1-c1nc(-c2nccnc2NCC(F)(F)F)nc(C(N)=O)c1N [Compound 555, 5-amino-6-(5-methyl-1H-indazol-4-yl)-2-(3-((2,2,2-trifluoroethyl)amino)pyrazin-2-yl)pyrimidine-4-carboxamide]	219 nM
Cc1ccc2[nH]ncc2c1-c1cc2c(oc3ccc(OCc4cccnc4)nc32)c(C(N)=O)c1N [Compound 569, 7-amino-8-(5-methyl-1H-indazol-4-yl)-2-(pyridin-3-ylmethoxy)benzofuro[3,2-b]pyridine-6-carboxamide]	712 nM
Cc1ccc2[nH]ncc2c1-c1nc(-c2ccc(C#N)nc2Nc2ncccn2)nc(C(N)=O)c1N [Compound 745]	140 nM
Cc1ccc2[nH]ncc2c1-c1nc(-c2ccc(Cl)nc2Nc2nccnc2C)nc(C(N)=O)c1N [Compound 780]	25 nM

Same assay, conditions: 2 h, 2 hours with compound, read-out: FUOV-1 CDK1 pThr14 IC50

IC50	SMILES
229 nM	Cc1ccc2[nH]ncc2c1-c1nc(-c2ccccc2[S+](C)[O-])nc(C(N)=O)c1N (centres unmarked) [Compound 820]
14 nM	CCc1ccc(-c2nc(C(N)=O)c(N)c(-c3c(C)ccc4[nH]ncc34)n2)c(Nc2ncccc2F)n1 [Compound 975]
12 nM	Cc1ccc2[nH]ncc2c1-c1nc(-c2ccc(F)nc2Nc2ncccc2C#N)nc(C(N)=O)c1N [Compound 934]
223 nM	[2H]C([2H])([2H])c1ccc2[nH]ncc2c1-c1nc(-c2cccnc2NC23CC(C(=O)OC)(C2)C3)nc(C(N)=O)c1N [Compound 961, methyl 3-((3-(5-amino-4-carbamoyl-6-(5-(methyl-d3)-1H-indazol-4-yl)pyrimidin-2-yl)pyridin-2-yl)amino)bicyclo[1.1.1]pentane-1-carboxylate]
22 nM	COc1cc(-c2nc(C(N)=O)c(N)c(-c3c(C)ccc4[nH]ncc34)n2)c(Nc2ncccc2F)cn1 [Compound 976, 5-amino-2-(5-((3-fluoropyridin-2-yl)amino)-2-methoxypyridin-4-yl)-6-(5-methyl-1H-indazol-4-yl)pyrimidine-4-carboxamide]

Continued, compound first:

SMILES	IC50
Cc1ccc2[nH]ncc2c1-c1nc(-c2cc(F)cnc2NCc2cnn(C)c2)nc(C(N)=O)c1N [Compound 895]	876 nM
Cc1ccc2[nH]ncc2c1-c1nc(-c2cc(F)cnc2N[C@H]2CC[C@@H](O)C2)nc(C(N)=O)c1N [Compound 797]	48 nM
COc1c(C(N)=O)nc(-c2cccnc2Nc2nc(F)ccc2F)nc1-c1c(C)ccc2[nH]ncc12 [Compound 963, 2-(2-((3,6-difluoropyridin-2-yl)amino)pyridin-3-yl)-5-methoxy-6-(5-methyl-1H-indazol-4-yl)pyrimidine-4-carboxamide]	> 10000 nM
Cc1ccc2[nH]ncc2c1-c1nc(-c2cc(Cl)ncc2Nc2ncccn2)nc(C(N)=O)c1N [Compound 955, 5-amino-2-(2-chloro-5-(pyrimidin-2-ylamino)pyridin-4-yl)-6-(5-methyl-1H-indazol-4-yl)pyrimidine-4-carboxamide]	51 nM
Cc1ccc2[nH]ncc2c1-c1nc(-c2cc(F)cnc2N[C@H]2COC[C@@H]2O)nc(C(N)=O)c1N [Compound 813]	123 nM
Cc1ccc2[nH]ncc2c1-c1nc(-c2cc(Cl)ncc2NC2CC(F)(F)C2)nc(C(N)=O)c1N [Compound 840]	54 nM
Cc1ccc2[nH]ncc2c1-c1nc(-c2ccccc2NC2CC(O)(C(F)(F)F)C2)nc(C(N)=O)c1N (centres unmarked) [Compound 882]	49 nM
Cc1cc(F)c2[nH]ncc2c1-c1nc(-c2ccc(F)nc2Nc2nc(C(F)F)ccc2F)nc(C(N)=O)c1N [Compound 867]	14 nM
Cc1cc(F)c2[nH]ncc2c1-c1nc(-c2cc(F)cnc2N[C@H]2CCOC2)nc(C(N)=O)c1N [Compound 869]	55 nM
Cn1cc(-c2nc(C(N)=O)c(N)c(-c3c(Cl)ccc4[nH]ncc34)n2)c(NC2CCCC2)n1 [Compound 920]	118 nM
Cc1ccc2[nH]ncc2c1-c1nc(-c2cc(F)cnc2N[C@H]2C[C@@H]3CC[C@H]2O3)nc(C(N)=O)c1N [Compound 899]	33 nM
Cc1ccc2[nH]ncc2c1-c1nc(-c2cc(F)cnc2NCCN2CCCC2)nc(C(N)=O)c1N [Compound 853]	538 nM
Cc1ccc2[nH]ncc2c1-c1nc(-c2cc(F)cnc2N[C@H]2CC[C@H](O)C2)nc(C(N)=O)c1N [Compound 812]	26 nM
Cc1ccc2[nH]ncc2c1-c1nc(-c2ccc(F)cc2N[C@H]2C[C@](C)(O)C2)nc(C(N)=O)c1N [Compound 861]	95 nM
Cc1cc(F)c2[nH]ncc2c1-c1nc(-c2ccc(F)nc2Nc2nccnc2C(F)F)nc(C(N)=O)c1N [Compound 868]	139 nM
Cc1ccc2[nH]ncc2c1-c1nc(-c2ccc(C(F)F)nc2Nc2ncccc2F)nc(C(N)=O)c1N [Compound 931]	14 nM
Cc1ccc2[nH]ncc2c1-c1nc(-c2cc(F)cnc2NC2CCN(CC(F)(F)F)CC2)nc(C(N)=O)c1N [Compound 863]	2080 nM
Cc1cc(F)c2[nH]ncc2c1-c1nc(-c2ccc(F)cc2Nc2ncccc2C#N)nc(C(N)=O)c1N [Compound 880]	8 nM
Cc1ccc(-c2nc(C(N)=O)c(N)c(-c3c(Cl)ccc4[nH]ncc34)n2)c(Nc2ncccn2)n1 [Compound 950]	42 nM

Same assay, conditions: 2 h compound incubation, read-out: FUOV-1 CDK1 pThr14 IC50

IC50	SMILES
1540 nM	Cc1ccc2[nH]ncc2c1-c1nc(-c2cccnc2Nc2cccnc2)nc(C(N)=O)c1N [Compound 595]
